Measured values published in US10857137B2, “Methods for the administration of certain VMAT2 inhibitors” (Neurocrine Biosciences, Inc., priority 2017, dated 2020).
Entries after “also recorded” stand apart in the source; their conditions may differ.

Key:
human VMAT1 transporter = target: T1, human VMAT1 transporter (Homo sapiens, UniProt P54219); assay: Uptake in cells expressing VMAT1; assay type: cell-based; settings: test compounds at concentrations up to 10 μM
T1 construct: expressed in transfected cells
T1 sequence (P54219 1-525): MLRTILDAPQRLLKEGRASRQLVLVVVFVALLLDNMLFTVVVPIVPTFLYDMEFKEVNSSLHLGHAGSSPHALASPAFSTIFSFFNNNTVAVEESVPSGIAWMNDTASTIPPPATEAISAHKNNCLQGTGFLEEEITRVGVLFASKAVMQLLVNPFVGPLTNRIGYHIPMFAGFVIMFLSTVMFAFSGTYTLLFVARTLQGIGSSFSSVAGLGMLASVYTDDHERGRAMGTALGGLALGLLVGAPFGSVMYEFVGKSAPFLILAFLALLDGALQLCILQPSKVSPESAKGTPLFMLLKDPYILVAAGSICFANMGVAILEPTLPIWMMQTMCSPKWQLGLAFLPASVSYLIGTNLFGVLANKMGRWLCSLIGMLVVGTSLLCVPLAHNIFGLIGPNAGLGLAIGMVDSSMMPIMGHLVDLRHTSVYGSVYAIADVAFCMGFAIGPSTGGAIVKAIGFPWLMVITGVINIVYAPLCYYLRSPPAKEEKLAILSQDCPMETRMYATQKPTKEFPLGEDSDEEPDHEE

[1] = Plasma concentrations of circulating metabolites of VBZ; assay type: in vivo; settings: metabolites formed from VBZ
[2] = tested on: more than 80 targets including GPCRs, cell-surface monoamine transporters, and ion channels including HERG; assay: Multi-target activity screen (Cerep screen), whole panel; assay type: binding; settings: receptors
[3] = tested on: prolactin release (D2 dopamine receptor); assay: Serum prolactin, in vivo surrogate measure
rat and human VMAT2 = assay: VMAT2 [3H]-DHTBZ binding, summary statements over rat and human tissues; settings: rat striatum and human platelet homogenates
Experimental: The affinity of each compound was measured by inhibition of [^3H]-DHTBZ binding to rat forebrain membranes. […] The affinity of each compound was measured by inhibition of [^3H]-DHTBZ binding to either human platelets or rat striatal membranes.

[4] = tested on: ptosis (adrenergic activation); assay: Ptosis, in vivo surrogate measure
[5] = tested on: dopamine, serotonin and adrenergic receptor subtypes; assay: Detailed radioligand binding assays, monoamine receptors; settings: radioligand binding assays and broad panel screen

SMILES	inhibition of uptake through VMAT1, in words (human VMAT1 transporter)	affinity for more than 80 binding sites, in words [2]	increase in serum prolactin levels, in words [3]	induction of ptosis, in words [4]	also measured
COc1cc2c(cc1OC)[C@H]1C[C@@H](OC(=O)[C@@H](N)C(C)(C)O)[C@H](CC(C)C)CN1CC2 [NBI-136110]	no significant inhibitory activity; also recorded: no significant effect	little to no affinity			decline of plasma concentrations (half-lives), in words [1]: half-lives similar to VBZ
COc1cc2c(cc1OC)[C@H]1C[C@@H](O)[C@H](CC(C)C)CN1CC2 [R,R,R-DHTBZ, (2R,3R,11bR)-3-isobutyl-9,10-dimethoxy-1,3,4,6,7,11b-hexahydro-2H-pyrido[2,1-a]isoquinolin-2-ol]	no significant inhibitory activity; also recorded: no significant effect	little to no affinity	induced a similar increase in serum prolactin levels as TBZ	induced ptosis in an equivalent manner	decline of plasma concentrations (half-lives), in words [1]: half-lives similar to VBZ; VMAT2 inhibition, in words (rat and human VMAT2): most potent inhibitor of VMAT2
COc1cc2c(cc1OC)[C@@H]1C[C@@H](O)[C@@H](CC(C)C)CN1CC2 [R,S,S-DHTBZ, reference compound]					interaction with D1 and D2 receptors, in words [5]: interact with D1 and D2 receptors
COc1cc2c(cc1OC)[C@@H]1C[C@H](O)[C@@H](CC(C)C)CN1CC2 [S,S,S-DHTBZ, reference compound]					interaction with D1 and D2 receptors, in words [5]: interact with D1 and D2 receptors
COc1cc2c(cc1OC)C1CC(=O)C(CC(C)C)CN1CC2 (stereo not shown) [TBZ, reference compound]	no significant inhibitory activity; also recorded: no significant effect		increase in serum prolactin levels	induced ptosis in an equivalent manner	
COc1cc2c(cc1OC)[C@H]1C[C@@H](OC(=O)[C@@H](N)C(C)C)[C@H](CC(C)C)CN1CC2 [Valbenazine, (S)-2-amino-3-methyl-butyric acid (2R,3R,11bR)-3-isobutyl-9,10-dimethoxy-1,3,4,6,7,11b-hexahydro-2H-pyrido[2,1-a]isoquinolin-2-yl ester]		little to no affinity	to a lesser extent	induced ptosis in an equivalent manner	inhibition of uptake through VMAT1, in words (human VMAT1 transporter; listed as VBZ): no significant inhibitory activity; also recorded: no significant effect
COC(=O)[C@H]1[C@H]2C[C@@H]3c4[nH]c5cc(OC)ccc5c4CCN3C[C@H]2C[C@@H](OC(=O)c2cc(OC)c(OC)c(OC)c2)[C@@H]1OC [reserpine, reference compound]	substantially inhibited uptake through VMAT1				
